# In ChEMBL document CHEMBL5647688, “Mitogen-activated protein kinase (MEK/ERK) inhibition sensitizes cancer cells to centromere-associated protein E inhibition” (Int J Cancer, 2013):
# Experiments:
# Type in all cases: functional
# [1] = system: NCI-H2122; assay: Synergistic cytotoxicity against human NCI-H2122 cells expressing KRAS mutant assessed as combination index at ED 50 measured after 72 hrs in presence of MEK inhibitor GSK1120212 by Cell-titer Glo reagent assay
# [2] = system: NB-1691; assay: Synergistic cytotoxicity against human NB-1691 cells assessed as combination index at ED 50 measured after 72 hrs in presence of concurrent treatment of […] inhibitor CI-1040 by Cell-titer Glo reagent assay
# [3] = system: NCI-H460; assay: Synergistic cytotoxicity against human NCI-H460 cells expressing KRAS mutant assessed as combination index at ED75 measured after 72 hrs in presence of MEK inhibitor GSK1120212 by Cell-titer Glo reagent assay
# [4] = system: NCI-H2228; assay: Synergistic cytotoxicity against human NCI-H2228 cells assessed as combination index at ED75 measured after 72 hrs in presence of MEK inhibitor GSK1120212 by Cell-titer Glo reagent assay
# [5] = system: SK-N-FI; assay: Synergistic cytotoxicity against human SK-N-FI cells assessed as combination index at ED 75 measured after 72 hrs in presence of temozolomide by Cell-titer Glo reagent assay
# [6] = system: CAPAN-1; assay: Synergistic cytotoxicity against human CAPAN-1 cells expressing KRAS mutant assessed as combination index at ED75 measured after 72 hrs in presence of MEK inhibitor GSK1120212 by Cell-titer Glo reagent assay
# [7] = system: SK-N-FI; assay: Synergistic cytotoxicity against human SK-N-FI cells assessed as combination index at ED 50 measured after 72 hrs in presence of sequential treatment of […] inhibitor CI-1040 by Cell-titer Glo reagent assay
# [8] = system: RKO; assay: Synergistic cytotoxicity against human RKO cells expressing BRAF mutant assessed as combination index at ED 50 measured after 72 hrs in presence of MEK inhibitor GSK1120212 by Cell-titer Glo reagent assay
# [9] = system: HuP-T4; assay: Synergistic cytotoxicity against human HuP-T4 cells expressing KRAS mutant assessed as combination index at ED 50 measured after 72 hrs in presence of MEK inhibitor GSK1120212 by Cell-titer Glo reagent assay
# [10] = system: NCI-H520; assay: Synergistic cytotoxicity against human NCI-H520 cells assessed as combination index at ED 50 measured after 72 hrs in presence of MEK inhibitor GSK1120212 by Cell-titer Glo reagent assay
# [11] = Synergistic cytotoxicity against human NB-1771 cells assessed as combination index at ED 50 measured after 72 hrs in presence of concurrent treatment of […] inhibitor CI-1040 by Cell-titer Glo reagent assay
# [12] = system: SK-N-FI; assay: Synergistic cytotoxicity against human SK-N-FI cells assessed as combination index at ED 75 measured after 72 hrs in presence of SN-38 and temozolomide by Cell-titer Glo reagent assay
# [13] = system: NB-1691; assay: Synergistic cytotoxicity against human NB-1691 cells assessed as combination index at ED 50 measured after 72 hrs in presence of SN-38 by Cell-titer Glo reagent assay
# [14] = system: SK-N-FI; assay: Synergistic cytotoxicity against human SK-N-FI cells assessed as combination index at ED 50 measured after 72 hrs in presence of SN-38 by Cell-titer Glo reagent assay
# [15] = system: RKO; assay: Synergistic cytotoxicity against human RKO cells expressing BRAF mutant assessed as combination index at ED75 measured after 72 hrs in presence of MEK inhibitor GSK1120212 by Cell-titer Glo reagent assay
# [16] = system: MIA PaCa-2; assay: Synergistic cytotoxicity against human MIA PaCa-2 cells expressing KRAS mutant assessed as combination index at ED 50 measured after 72 hrs in presence of MEK inhibitor GSK1120212 by Cell-titer Glo reagent assay
# [17] = system: NB-1691; assay: Synergistic cytotoxicity against human NB-1691 cells assessed as combination index at ED 75 measured after 72 hrs in presence of temozolomide and SN-38 by Cell-titer Glo reagent assay
# [18] = system: NCI-H2170; assay: Synergistic cytotoxicity against human NCI-H2170 cells assessed as combination index at ED 50 measured after 72 hrs in presence of MEK inhibitor GSK1120212 by Cell-titer Glo reagent assay
# [19] = system: NCI-H1563; assay: Synergistic cytotoxicity against human NCI-H1563 cells assessed as combination index at ED 50 measured after 72 hrs in presence of MEK inhibitor GSK1120212 by Cell-titer Glo reagent assay
# [20] = system: SK-N-FI; assay: Synergistic cytotoxicity against human SK-N-FI cells assessed as combination index at ED 75 measured after 72 hrs in presence of sequential treatment of […] inhibitor CI-1040 by Cell-titer Glo reagent assay
# [21] = system: NCI-H1299; assay: Synergistic cytotoxicity against human NCI-H1299 cells expressing NRAS mutant assessed as combination index at ED 50 measured after 72 hrs in presence of MEK inhibitor GSK1120212 by Cell-titer Glo reagent assay
# [22] = system: HPAF-II; assay: Synergistic cytotoxicity against human HPAF-II cells expressing KRAS mutant assessed as combination index at ED 50 measured after 72 hrs in presence of MEK inhibitor GSK1120212 by Cell-titer Glo reagent assay
# [23] = system: NCI-H358; assay: Synergistic cytotoxicity against human NCI-H358 cells expressing KRAS mutant assessed as combination index at ED75 measured after 72 hrs in presence of MEK inhibitor GSK1120212 by Cell-titer Glo reagent assay
# [24] = system: Capan-2; assay: Synergistic cytotoxicity against human Capan-2 cells expressing KRAS mutant assessed as combination index at ED 50 measured after 72 hrs in presence of MEK inhibitor GSK1120212 by Cell-titer Glo reagent assay
# [25] = system: SW900; assay: Synergistic cytotoxicity against human SW900 cells expressing KRAS mutant assessed as combination index at ED 50 measured after 72 hrs in presence of MEK inhibitor GSK1120212 by Cell-titer Glo reagent assay
# [26] = system: HCT-116; assay: Synergistic cytotoxicity against human HCT-116 cells expressing KRAS mutant assessed as combination index at ED 50 measured after 72 hrs in presence of MEK inhibitor GSK1120212 by Cell-titer Glo reagent assay
# [27] = system: HuP-T4; assay: Synergistic cytotoxicity against human HuP-T4 cells expressing KRAS mutant assessed as combination index at ED75 measured after 72 hrs in presence of MEK inhibitor GSK1120212 by Cell-titer Glo reagent assay
# [28] = system: NB-1691; assay: Synergistic cytotoxicity against human NB-1691 cells assessed as combination index at ED 50 measured after 72 hrs in presence of temozolomide and SN-38 by Cell-titer Glo reagent assay
# [29] = system: SW1990; assay: Synergistic cytotoxicity against human SW1990 cells expressing KRAS mutant assessed as combination index at ED 50 measured after 72 hrs in presence of MEK inhibitor GSK1120212 by Cell-titer Glo reagent assay
# [30] = system: NCI-H358; assay: Synergistic cytotoxicity against human NCI-H358 cells expressing KRAS mutant assessed as combination index at ED 50 measured after 72 hrs in presence of MEK inhibitor GSK1120212 by Cell-titer Glo reagent assay
compound,measurement,setting,value
CC(C)Oc1ccc(C(=O)N[C@H](CNC(=O)CN(C)C)Cc2ccc(-c3cn4cccc([C@H](C)O)c4n3)cc2)cc1Cl [GSK-923295A],CI,[1],0.85
same,CI,[2],0.256
same,CI,[3],0.294
same,CI,[4],0.404
same,CI,[5],0.94
same,CI,[6],0.091
same,CI,[7],0.834
same,CI,[8],0.373
same,CI,[9],0.452
same,CI,[10],0.842
same,CI,[11],0.136
same,CI,[12],1.058
same,CI,[13],0.394
same,CI,[14],1.845
same,CI,[15],0.206
same,CI,[16],0.394
same,CI,[17],0.3
same,CI,[18],0.37
same,CI,[19],0.405
same,CI,[20],0.757
same,CI,[21],0.382
same,CI,[22],0.567
same,CI,[23],0.467
same,CI,[24],0.298
same,CI,[25],0.705
same,CI,[26],0.695
same,CI,[27],0.892
same,CI,[28],0.049
same,CI,[29],0.176
same,CI,[30],0.416
